What was measured:
[1] = biological target: T1, AR-VP16 (Homo sapiens, UniProt P10275); assay: AR-VP16 DNA Binding Assay, agonist mode (HepG2 cells); assay type: cell-based; details: Emax >20x DMSO control = agonist
T1 sequence (P10275 560-920 limits assumed): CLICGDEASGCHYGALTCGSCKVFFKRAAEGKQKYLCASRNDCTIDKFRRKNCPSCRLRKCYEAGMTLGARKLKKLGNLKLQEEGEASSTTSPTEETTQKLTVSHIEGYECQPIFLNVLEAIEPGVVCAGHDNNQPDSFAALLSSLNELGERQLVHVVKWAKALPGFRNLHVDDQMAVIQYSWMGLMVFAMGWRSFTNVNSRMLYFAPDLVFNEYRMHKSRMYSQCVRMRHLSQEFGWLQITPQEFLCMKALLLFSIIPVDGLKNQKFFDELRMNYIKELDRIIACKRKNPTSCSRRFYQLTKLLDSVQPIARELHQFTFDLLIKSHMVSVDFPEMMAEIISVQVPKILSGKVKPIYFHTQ

[2] = biological target: T1, AR-VP16; assay: AR-VP16 DNA Binding Assay, antagonist mode (HepG2 cells, 0.1 nM R1881); assay type: cell-based
Summary of the method: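 HepG2 cells transiently transfected with AR-VP16 (Lipofectin), incubated overnight, then treated with compound in RPMI with charcoal-stripped serum. Antagonist mode adds R1881 at 0.1 nM final. Cells lysed after 48 h incubation for read-out.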

| Structure (SMILES) | ARVP16 DNA Binding Assay (Agonist mode): Agonist? [1] | IC50 [2] |
| --- | --- | --- |
| O=C1N(c2ccc3nnc(C(F)(F)F)n3n2)C(=S)N(c2ccc(O)cc2)C12CCC2 [Compound 2, 5-(4-Hydroxyphenyl)-6-thioxo-7-(3-(trifluoromethyl)-[1,2,4]triazolo[4,3-b]pyridazin-6-yl)-5,7-diazaspiro[3.4]octan-8-one] | No (Agonist defined as a compound whose Emax in the ARVP16 DNA Binding Assay (Agonist mode) is >20x DMSO control) | > 1000 nM |
| N#Cc1ncc(N2C(=O)C3(CCC3)N(c3ccc(C(=O)NCc4cnccn4)c(F)c3)C2=S)cc1C(F)(F)F [Compound 290, 4-(7-(6-Cyano-5-(trifluoromethyl)pyridin-3-yl)-8-oxo-6-thioxo-5,7-diazaspiro[3.4]octan-5-yl)-2-fluoro-N-(pyrazin-2-ylmethyl)benzamide] | No (Agonist defined as a compound whose Emax in the ARVP16 DNA Binding Assay (Agonist mode) is >20x DMSO control) | < 1000 nM |
| CC(C)C(=O)N1CCC(Oc2ccc(N3C(=S)N(c4cnc(C#N)c(C(F)(F)F)c4)C(=O)C34CCC4)cc2)CC1 [Compound 213, 5-(5-(4-((1-isobutyrylpiperidin-4-yl)oxy)phenyl)-8-oxo-6-thioxo-5,7-diazaspiro[3.4]octan-7-yl)-3-(trifluoromethyl)picolinonitrile] | Yes (Agonist defined as a compound whose Emax in the ARVP16 DNA Binding Assay (Agonist mode) is >20x DMSO control) | < 1000 nM |
| Cc1cc(N2C(=O)C3(CCC3)N(c3ccc(C(=O)NCC4CCOCC4)c(F)c3)C2=S)cnc1C#N [Compound 311, 4-(7-(6-Cyano-5-methylpyridin-3-yl)-8-oxo-6-thioxo-5,7-diazaspiro[3.4]octan-5-yl)-2-fluoro-N-((tetrahydro-2H-pyran-4-yl)methyl)benzamide] | No (Agonist defined as a compound whose Emax in the ARVP16 DNA Binding Assay (Agonist mode) is >20x DMSO control) | > 1000 nM |
| Cc1cc(N2C(=O)C3(CCC3)N(c3ccc(OC4CCN(C)CC4)cc3)C2=S)cnc1C#N [Compound 191, 3-Methyl-5-(5-(4-((1-methylpiperidin-4-yl)oxy)phenyl)-8-oxo-6-thioxo-5,7-diazaspiro[3.4]octan-7-yl)picolinonitrile] | No (Agonist defined as a compound whose Emax in the ARVP16 DNA Binding Assay (Agonist mode) is >20x DMSO control) | > 1000 nM |
| Cc1cc(N2C(=O)C(C)(C)N(c3ccc(O)cc3)C2=S)cnc1C#N [Compound 101, 5-(3-(4-Hydroxyphenyl)-4,4-dimethyl-5-oxo-2-thioxoimidazolidin-1-yl)-3-methylpicolinonitrile] | No (Agonist defined as a compound whose Emax in the ARVP16 DNA Binding Assay (Agonist mode) is >20x DMSO control) | > 1000 nM |
| CNC(=O)c1ccc(N2C(=S)N(c3ccc(C#N)c(C(F)(F)F)n3)C(=O)C23CCC3)cc1F [Compound 35, 4-(7-(5-Cyano-6-(trifluoromethyl)pyridin-2-yl)-8-oxo-6-thioxo-5,7-diazaspiro[3.4]octan-5-yl)-2-fluoro-N-methylbenzamide] | No (Agonist defined as a compound whose Emax in the ARVP16 DNA Binding Assay (Agonist mode) is >20x DMSO control) | > 1000 nM |
| Cc1cc(N2C(=O)C3(CCC3)N(c3ccc(-c4cccnc4C)cc3)C2=S)cnc1C#N [Compound 99, 3-Methyl-5-(5-(4-(2-methylpyridin-3-yl)phenyl)-8-oxo-6-thioxo-5,7-diazaspiro[3.4]octan-7-yl)picolinonitrile] | Yes (Agonist defined as a compound whose Emax in the ARVP16 DNA Binding Assay (Agonist mode) is >20x DMSO control) | < 1000 nM |
| N#Cc1ncc(N2C(=O)C3(CCC3)N(c3ccc(C(=O)Nc4ccccn4)c(F)c3)C2=S)cc1C(F)(F)F [Compound 261, 4-(7-(6-Cyano-5-(trifluoromethyl)pyridin-3-yl)-8-oxo-6-thioxo-5,7-diazaspiro[3.4]octan-5-yl)-2-fluoro-N-(pyridin-2-yl)benzamide] | No (Agonist defined as a compound whose Emax in the ARVP16 DNA Binding Assay (Agonist mode) is >20x DMSO control) | < 1000 nM |
| Cc1ccncc1-c1ccc(N2C(=S)N(c3cnc(C#N)c(C)c3)C(=O)C23CCC3)cc1 [Compound 97, 3-Methyl-5-(5-(4-(4-methylpyridin-3-yl)phenyl)-8-oxo-6-thioxo-5,7-diazaspiro[3.4]octan-7-yl)picolinonitrile] | Yes (Agonist defined as a compound whose Emax in the ARVP16 DNA Binding Assay (Agonist mode) is >20x DMSO control) | < 1000 nM |
| N#Cc1ncc(N2C(=O)C3(CCC3)N(c3ccc(OC(F)(F)F)cc3)C2=S)cc1C(F)(F)F [Compound 44, 5-(8-Oxo-6-thioxo-5-(4-(trifluoromethoxy)phenyl)-5,7-diazaspiro[3.4]octan-7-yl)-3-(trifluoromethyl)picolinonitrile] | No (Agonist defined as a compound whose Emax in the ARVP16 DNA Binding Assay (Agonist mode) is >20x DMSO control) | < 1000 nM |
| COCCN(C)C(=O)c1ccc(N2C(=S)N(c3cnc(C#N)c(C(F)(F)F)c3)C(=O)C23CCC3)cc1F [Compound 250, 4-(7-(6-Cyano-5-(trifluoromethyl)pyridin-3-yl)-8-oxo-6-thioxo-5,7-diazaspiro[3.4]octan-5-yl)-2-fluoro-N-(2-methoxyethyl)-N-methylbenzamide] | No (Agonist defined as a compound whose Emax in the ARVP16 DNA Binding Assay (Agonist mode) is >20x DMSO control) | > 1000 nM |
| N#Cc1cccc(N2C(=S)N(c3cnc(C#N)c(C(F)(F)F)c3)C(=O)C23CCC3)c1 [Compound 11, 5-(5-(3-Cyanophenyl)-8-oxo-6-thioxo-5,7-diazaspiro[3.4]octan-7-yl)-3-(trifluoromethyl)picolinonitrile] | No (Agonist defined as a compound whose Emax in the ARVP16 DNA Binding Assay (Agonist mode) is >20x DMSO control) | < 1000 nM |
| CNC(=O)c1ccc(N2C(=S)N(c3cnc(C#N)c(C)c3)C(=O)C23CCC3)cc1 [Compound 78, 4-(7-(6-Cyano-5-methylpyridin-3-yl)-8-oxo-6-thioxo-5,7-diazaspiro[3.4]octan-5-yl)-N-methylbenzamide] | No (Agonist defined as a compound whose Emax in the ARVP16 DNA Binding Assay (Agonist mode) is >20x DMSO control) | > 1000 nM |
| CN(C)S(=O)(=O)c1ccc(N2C(=S)N(c3cnc(C#N)c(C(F)(F)F)c3)C(=O)C23CCC3)cc1 [Compound 121, 4-(7-(6-Cyano-5-(trifluoromethyl)pyridin-3-yl)-8-oxo-6-thioxo-5,7-diazaspiro[3.4]octan-5-yl)-N,N-dimethylbenzenesulfonamide] | No (Agonist defined as a compound whose Emax in the ARVP16 DNA Binding Assay (Agonist mode) is >20x DMSO control) | > 1000 nM |
| N#Cc1ncc(N2C(=O)C3(CCC3)N(c3ccc(C(=O)NCCCN4CCC(F)(F)C4)c(F)c3)C2=S)cc1C(F)(F)F [Compound 313, 4-(7-(6-Cyano-5-(trifluoromethyl)pyridin-3-yl)-8-oxo-6-thioxo-5,7-diazaspiro[3.4]octan-5-yl)-N-(3-(3,3-difluoropyrrolidin-1-yl)propyl)-2-fluorobenzamide] | No (Agonist defined as a compound whose Emax in the ARVP16 DNA Binding Assay (Agonist mode) is >20x DMSO control) | < 1000 nM |
| N#Cc1ncc(N2C(=O)C3(CCC3)N(c3ccc(C(=O)NCCCO)c(F)c3)C2=S)cc1C(F)(F)F [Compound 306, 4-(7-(6-cyano-5-(trifluoromethyl)pyridin-3-yl)-8-oxo-6-thioxo-5,7-diazaspiro[3.4]octan-5-yl)-2-fluoro-N-(3-hydroxypropyl)benzamide] | No (Agonist defined as a compound whose Emax in the ARVP16 DNA Binding Assay (Agonist mode) is >20x DMSO control) | < 1000 nM |
| CC(=O)N1CCC(Oc2ccc(N3C(=S)N(c4cnc(C#N)c(C)c4)C(=O)C34CCC4)cc2)CC1 [Compound 215, 5-(5-(4-((1-acetylpiperidin-4-yl)oxy)phenyl)-8-oxo-6-thioxo-5,7-diazaspiro[3.4]octan-7-yl)-3-methylpicolinonitrile] | Yes (Agonist defined as a compound whose Emax in the ARVP16 DNA Binding Assay (Agonist mode) is >20x DMSO control) | < 1000 nM |
| CNC(=O)c1ccc(N2C(=S)N(c3cnc(C#N)c(C(F)F)c3)C(=O)C23CCC3)cc1F [Compound 113, 4-(7-(6-Cyano-5-(difluoromethyl)pyridin-3-yl)-8-oxo-6-thioxo-5,7-diazaspiro[3.4]octan-5-yl)-2-fluoro-N-methylbenzamide] | No (Agonist defined as a compound whose Emax in the ARVP16 DNA Binding Assay (Agonist mode) is >20x DMSO control) | < 1000 nM |
| N#Cc1ncc(N2C(=O)C3(CCC3)N(c3ccc(C(=O)Nc4ccccc4)c(F)c3)C2=S)cc1C(F)(F)F [Compound 255, 4-(7-(6-Cyano-5-(trifluoromethyl)pyridin-3-yl)-8-oxo-6-thioxo-5,7-diazaspiro[3.4]octan-5-yl)-2-fluoro-N-phenylbenzamide] | No (Agonist defined as a compound whose Emax in the ARVP16 DNA Binding Assay (Agonist mode) is >20x DMSO control) | < 1000 nM |

From patent US9108944B2, “Androgen receptor modulators and uses thereof” (ARAGON PHARMACEUTICALS, INC., priority 2010, dated 2015)
